# Measurements reported in ChEMBL document CHEMBL5726799, “IRAK4 inhibiting agents” (2019).
# Molecular target: T1, Interleukin-1 receptor-associated kinase 4 (Homo sapiens, UniProt Q9NWZ3)
# T1 sequence (Q9NWZ3 whole entry): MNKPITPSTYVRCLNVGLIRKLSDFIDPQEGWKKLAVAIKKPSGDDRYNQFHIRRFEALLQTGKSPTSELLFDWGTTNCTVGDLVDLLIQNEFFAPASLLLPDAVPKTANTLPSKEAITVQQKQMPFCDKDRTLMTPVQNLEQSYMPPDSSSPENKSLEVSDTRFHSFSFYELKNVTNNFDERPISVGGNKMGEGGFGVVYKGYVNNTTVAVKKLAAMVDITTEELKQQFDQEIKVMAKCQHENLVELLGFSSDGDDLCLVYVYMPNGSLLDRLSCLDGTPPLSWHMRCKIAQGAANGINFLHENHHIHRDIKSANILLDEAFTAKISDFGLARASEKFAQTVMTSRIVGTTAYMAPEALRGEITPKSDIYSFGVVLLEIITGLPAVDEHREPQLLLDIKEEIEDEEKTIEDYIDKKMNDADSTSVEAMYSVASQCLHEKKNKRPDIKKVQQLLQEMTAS
# Test: Biochemical Assay: The biochemical assay is in a AlphaScreen format. The kinase reaction is based on the IRAK-4 phosphorylation of a biotin labeled peptide. The phosphopeptide is incubated with anti-phosphothreonine antibody as well as streptavidin- and protein A-coated beads. Binding of the protein-A coated beads to the antibody and the streptavidin beads to the peptide, leads to an energy transfer from one bead to the other, ultimately producing a luminescent/fluorescent signal.Generally, the kinase reaction is carried out at 1 nM IRAK4, 1.6 μM peptide, 1 mM ATP in reaction buffer 50 mM Hepes, 60 mM NaCl, 5 mM MgCl2, 0.25 mM MnCl2, 2 mM DTT, 0.01% BSA, 0.01% Tween-20) for 3.5 h at RT.
row,IC50,Compound
1,< 0.1 µM,CCC[C@H](N)c1cccc(-c2cc(N3CCC3)c3cnn(-c4cccc(CO)n4)c3c2)n1
2,< 0.1 µM,CCc1cccc(-c2cc(-c3nnc(C)o3)c3cnn(-c4cccc(CO)n4)c3c2)n1
3,< 0.1 µM,CCC[C@H](N)c1cccc(-c2cc(N3CCOCC3)c3cnn(-c4cccc(CO)n4)c3c2)n1

row,Compound,IC50
1,N#CCNC(=O)c1cc(N)cc(-c2ccc3cnn(-c4cccc(C(F)(F)F)n4)c3c2)c1,< 0.1 µM
